Series [1] has as its system HepG2 hepatocellular carcinoma. Put plainly: In vitro anti-proliferative activity, SRB assay, HepG2. It counts as cell-based, human. How it is done:
(§1) HepG2 liver cancer, MCF-7 breast cancer and Caco-2 cancer cell lines were obtained from the National Cancer Institute (Cairo, Egypt). Caco-2 cells were grown in DMEM while HepG2 and MCF-7 were grown in RPMI-1640. Media were supplemented with 10% heat-inactivated FBS, 50 units/mL of penicillin and 50 µg/mL of streptomycin and maintained at 37 °C in a humidified atmosphere containing 5% CO2. The cells were maintained as a “monolayer culture” by serial subculturing. Cytotoxicity was determined using the sulforhodamine B (SRB) method as previously described by Skehan et al.[50] Exponentially growing cells were collected using 0.25% trypsin-EDTA and seeded in 96-well plates at 1000–2000 cells/well in supplemented DMEM medium. After 24 h, cells were incubated for 72 h with various concentrations of the tested compounds as well as doxorubicin as the reference compound. Following 72 h of treatment, the cells were fixed with 10% trichloroacetic acid for 1 h at 4 °C. Wells were stained for 10 min at room temperature with 0.4% SRB dissolved in 1% acetic acid. The plates were air dried for 24 h, and the dye was solubilized with Tris–HCl for 5 min on a shaker at 1600 rpm. The optical density (OD) of each well was measured spectrophotometrically at 564 nm with an ELISA microplate reader (ChroMate-4300, FL, USA). The IC50 values were calculated according to the equation for Boltzmann sigmoidal concentrationeresponse curve using the nonlinear regression models (GraphPad, Prism Version 5). The results reported are means of at least three separate experiments. Significant differences were analyzed by one-way ANOVA wherein the differences were considered to be significant at p < .05.
(§2) All the newly synthesized target coumarin sulfonamides were evaluated for their in vitro anti-proliferative activity against three human tumor cancer cell lines, HepG2 hepatocellular carcinoma, MCF-7 breast cancer, and Caco-2 colon cancer, using SRB colorimetric assay as described by Skehan et al.^50 Doxorubicin was involved in the experiments as a reference cytotoxic compound.

Series [2] deals with MCF-7 breast cancer. Put plainly: In vitro anti-proliferative activity, SRB assay, MCF-7. It counts as cell-based, human. Conditions: mean ± SE of three experiments. On the procedure:
as §1, §2

Series [3] concerns Caco-2 colon cancer. Put plainly: In vitro anti-proliferative activity, SRB assay, Caco-2. It counts as cell-based, human. On the procedure:
as §1, §2

Setting [4] is: Homo sapiens, HepG2, 72 h, 72 h incubation, SRB, mean ± SE of three experiments, read-out: IC50 HepG2.
The mark [5] stands for this setting: Homo sapiens, HepG2, training set, Table 4, -log IC50 (IC50 in µM), read-out: HepG2 Experimental activity (pIC50) (converted).
The mark [6] stands for this setting: Homo sapiens, MCF7, 72 h incubation.
Setting [7] is: Homo sapiens, Caco-2, 72 h incubation, SRB, mean ± SE of three experiments, read-out: IC50 Caco-2.
The mark [8] stands for this setting: Homo sapiens, Caco-2, training set, Table 4, -log IC50 (IC50 in µM), read-out: Caco-2 Experimental activity (pIC50) (converted).
[9] abbreviates: Homo sapiens, HepG2, external validation test compounds, Table 5, -log IC50 (IC50 in µM), read-out: HepG2 Experimental activity (pIC50) (converted).
Where [10] appears, read: 72 h incubation, SRB, mean ± SE of three experiments, read-out: IC50 HepG2.
The mark [11] stands for this setting: training set, Table 4, -log IC50 (IC50 in µM).

The values below come from publication PMC6022226, “Novel coumarin-6-sulfonamides as apoptotic anti-proliferative agents: synthesis, in vitro biological evaluation, and QSAR studies” (Journal of Enzyme Inhibition and Medicinal Chemistry, 2018).

Where two headings read alike, the source gives them in different places.

Take `NS(=O)(=O)c1ccc(NS(=O)(=O)c2ccc3oc(=O)ccc3c2)cc1` [Compound 4a, 2-Oxo-N-(4-sulfamoylphenyl)-2H-chromene-6-sulfonamide]: the melting point is 266 to 268 °C. Besides, the IC50 in series [1] (setting [4]) was determined as 35.5 ± 2.93 µM. Besides, the IC50 in series [1] (setting [5]) is 35.5 µM. Also, the IC50 in series [2] (setting [6]) stood at 50.7 ± 4.61 µM. Further, the IC50 in series [3] (setting [7]) amounted to 193 ± 15.3 µM. Moreover, in series [3] (setting [8]), the IC50 is 193 µM.

Regarding `O=c1ccc2cc(S(=O)(=O)Nc3ccc(S(=O)(=O)Nc4ccccn4)cc3)ccc2o1` [Compound 4b, 2-Oxo-N-(4-(N-(pyridin-2-yl)sulfamoyl)phenyl)-2H-chromene-6-sulfonamide], the melting point fell in the range of 237 to 239 °C. Also, the IC50 in series [1] (setting [4]) stood at 8.08 ± 0.51 µM. For the same compound, the IC50 in series [1] (setting [5]) was 8.08 µM. The compound also yielded an IC50 in series [2] (setting [6]) of 22.9 ± 2.04 µM. Moreover, the IC50 in series [3] (setting [7]) was found to be 66.9 ± 6.07 µM. Further, the IC50 in series [3] (setting [8]) is 66.9 µM.

On to `CC(=O)c1ccc(NS(=O)(=O)c2ccc3oc(=O)ccc3c2)cc1` [Compound 6, N-(4-acetylphenyl)-2-oxo-2H-chromene-6-sulfonamide], for which the IC50 was 25.6 ± 1.36 µM in series [1] (setting [4]); 25.6 µM in series [1] (setting [9]); greater than 200 µM in series [2] (setting [6]); 81.5 ± 6.89 µM in series [3] (setting [7]); 81.5 µM in series [3] (Homo sapiens, Caco-2, external validation test compounds, Table 5, -log IC50 (IC50 in µM), read-out: Caco-2 Experimental activity (pIC50) (converted)).

In turn, `CC(=NNc1ccccc1)c1ccc(NS(=O)(=O)c2ccc3oc(=O)ccc3c2)cc1` [Compound 8a, 2-Oxo-N-(4–(1-(2-phenylhydrazono)ethyl)phenyl)-2H-chromene-6-sulfonamide] showed a melting point of 178 to 180 °C. The IC50 in series [1] (setting [4]) turned out to be 27 ± 2.01 µM. Moreover, in series [1] (setting [5]), the IC50 was 27 µM. Moreover, in series [2] (setting [6]), the IC50 was 14.3 ± 1.18 µM. The IC50 in series [3] (setting [7]) was determined as 8.53 ± 0.72 µM. Besides, in series [3] (setting [8]), the IC50 is 8.53 µM.

Take `CC(=NNc1ccc([N+](=O)[O-])cc1[N+](=O)[O-])c1ccc(NS(=O)(=O)c2ccc3oc(=O)ccc3c2)cc1` [Compound 8b, N-(4–(1-(2–(2,4-dinitrophenyl)hydrazono)ethyl)phenyl)-2-oxo-2H-chromene-6-sulfonamide]: the melting point is 269 to 270 °C. Also, the IC50 in series [1] (setting [5]) is 11.8 µM. The IC50 in series [1] (Homo sapiens, HepG2, 72 h incubation, SRB, mean ± SE of three experiments, read-out: IC50 HepG2) turned out to be 11.8 ± 1.34 µM. The IC50 in series [2] (setting [6]) came out at 126 ± 10.9 µM. Besides, the IC50 in series [3] (setting [7]) amounted to 89.6 ± 7.26 µM. Besides, the IC50 in series [3] (setting [8]) was 89.6 µM.

On to `CC(=NNc1c(Cl)cc(Cl)cc1Cl)c1ccc(NS(=O)(=O)c2ccc3oc(=O)ccc3c2)cc1` [Compound 8c, 2-Oxo-N-(4–(1-(2–(2,4,6-trichlorophenyl)hydrazono)ethyl)phenyl)-2H-chromene-6-sulfonamide], for which the melting point lay within 259 to 260 °C. In series [1] (setting [4]), the IC50 came to 29.8 ± 2.21 µM. Besides, the IC50 in series [1] (setting [5]) was 29.8 µM. In series [2] (setting [6]), the IC50 was greater than 200 µM. In addition, the IC50 in series [3] (setting [7]) was determined as 76.9 ± 6.59 µM. In addition, the IC50 in series [3] (setting [8]) is 76.9 µM.

In turn, `CC(=NNS(=O)(=O)c1ccc(C)cc1)c1ccc(NS(=O)(=O)c2ccc3oc(=O)ccc3c2)cc1` [Compound 8d, 2-Oxo-N-(4–(1-(2-tosylhydrazono)ethyl)phenyl)-2H-chromene-6-sulfonamide] had a melting point of 163 to 165 °C. In series [1] (setting [4]), the IC50 worked out at 89.9 ± 7.63 µM. Moreover, the IC50 in series [1] (setting [9]) was 89.9 µM. In addition, the IC50 in series [2] (setting [6]) was greater than 200 µM. The IC50 in series [3] (setting [7]) is 16 ± 1.32 µM. Moreover, in series [3] (setting [8]), the IC50 is 16 µM.

The compound `CC(=NNC(N)=S)c1ccc(NS(=O)(=O)c2ccc3oc(=O)ccc3c2)cc1` [Compound 9, 2–(1-(4–(2-Oxo-2H-chromene-6-sulfonamido)phenyl)ethylidene)hydrazine carbothioamide] showed a melting point of 253 to 254 °C. For the same compound, the IC50 in series [1] (setting [4]) was found to be 163 ± 10.2 µM. Further, the IC50 in series [1] (setting [5]) is 163 µM. The IC50 in series [2] (setting [6]) was greater than 200 µM. Moreover, in series [3] (setting [7]), the IC50 was greater than 200 µM.

`CC(=NNc1nc(C)cs1)c1ccc(NS(=O)(=O)c2ccc3oc(=O)ccc3c2)cc1` [Compound 11a, N-(4–(1-(2–(4-methylthiazol-2-yl)hydrazono)ethyl)phenyl)-2-oxo-2H-chromene-6-sulfonamide] showed a melting point of 257 to 259 °C. In series [1] (setting [4]), the IC50 was greater than 200 µM. In series [2] (setting [6]), this compound displayed an IC50 of 13.9 ± 1.19 µM. For the same compound, in series [3] (setting [7]), the IC50 amounted to 10.1 ± 0.9 µM.

`CCOC(=O)c1sc(NN=C(C)c2ccc(NS(=O)(=O)c3ccc4oc(=O)ccc4c3)cc2)nc1C` [Compound 11b, Ethyl 4-methyl-2–(2-(1–(4-(2-oxo-2H-chromene-6-sulfonamido)phenyl)ethylidene)hydrazinyl)thiazole-5-carboxylate]: the melting point was 180 to 182 °C. The IC50 in series [1] (setting [4]) is 54.3 ± 3.87 µM. The IC50 in series [1] (setting [5]) is 54.3 µM. Further, the IC50 in series [2] (setting [6]) stood at 63.4 ± 5.69 µM. Moreover, the IC50 in series [3] (setting [7]) came out at 145 ± 8.02 µM. Also, the IC50 in series [3] (setting [8]) was 145 µM.

`CC(=NNc1nc(C)c(N=Nc2ccc(Cl)cc2)s1)c1ccc(NS(=O)(=O)c2ccc3oc(=O)ccc3c2)cc1` [Compound 11c, N-(4–(1-(2–(5-((4-chlorophenyl)diazenyl)-4-methylthiazol-2-yl)hydrazono)ethyl)phenyl)-2-oxo-2H-chromene-6-sulfonamide] yielded a melting point of 250 to 252 °C. In addition, in series [1] (setting [4]), the IC50 came to 72.5 ± 6.33 µM. Besides, in series [1] (setting [5]), the IC50 was 72.5 µM. This compound gave an IC50 in series [2] (setting [6]) of 34.7 ± 2.94 µM. For the same compound, the IC50 in series [3] (setting [7]) amounted to 108 ± 11.4 µM. In addition, the IC50 in series [3] (setting [8]) is 108 µM.

For `CC(=NNc1nc(C)c(N=Nc2ccc(C)cc2)s1)c1ccc(NS(=O)(=O)c2ccc3oc(=O)ccc3c2)cc1` [Compound 11d, N-(4–(1-(2–(4-methyl-5-(p-tolyldiazenyl)thiazol-2yl)hydrazono)ethyl)phenyl)-2-oxo-2H-chromene-6-sulfonamide], the melting point was 258 to 259 °C. In addition, the IC50 in series [1] (setting [4]) was greater than 200 µM. The same compound returned an IC50 in series [2] (setting [6]) greater than 200 µM. For the same compound, the IC50 in series [3] (setting [7]) is 16.1 ± 1.28 µM. For the same compound, the IC50 in series [3] (setting [8]) is 16.1 µM.

`CC(=NNc1nc(-c2cc3ccccc3oc2=O)cs1)c1ccc(NS(=O)(=O)c2ccc3oc(=O)ccc3c2)cc1` [Compound 13b, 2-Oxo-N-(4–(1-(2–(4-(2-oxo-2H-chromen-3-yl)thiazol-2-yl)hydrazono)ethyl)phenyl)-2H-chromene-6-sulfonamide] returned a melting point of 201 to 202 °C. For the same compound, the IC50 in series [1] (setting [4]) came to 11.8 ± 1.16 µM. Also, in series [1] (setting [5]), the IC50 was 11.8 µM. In series [2] (setting [6]), the IC50 was greater than 200 µM. Besides, the IC50 in series [3] (setting [7]) is 96.6 ± 5.37 µM. For the same compound, the IC50 in series [3] (setting [8]) is 96.6 µM.

`CC(=NNC1=NC(=O)C(CC(=O)O)S1)c1ccc(NS(=O)(=O)c2ccc3oc(=O)ccc3c2)cc1` (stereo not shown) [Compound 15c, 2–(4-Oxo-2–(2-(1–(4-(2-oxo-2H-chromene-6-sulfonamido)phenyl)ethylidene) hydrazinyl)-4,5-dihydrothiazol-5-yl)acetic acid] displayed a melting point of 193 to 194 °C. Also, in series [1] (setting [4]), the IC50 turned out to be 7.57 ± 0.66 µM. Besides, in series [1] (setting [9]), the IC50 was 7.57 µM. Further, in series [2] (setting [6]), the IC50 worked out at 16.3 ± 1.48 µM. Also, the IC50 in series [3] (setting [7]) was found to be 46.1 ± 3.17 µM. The IC50 in series [3] (setting [8]) is 46.1 µM.

In the case of `COc1cccc2c1C(=O)c1c(O)c3c(c(O)c1C2=O)C[C@@](O)(C(=O)CO)C[C@@H]3O[C@H]1C[C@H](N)[C@H](O)[C@H](C)O1` [Doxorubicin, reference compound], the IC50 in series [1] (setting [10]) is 5.43 ± 0.24 µM; in series [1] (setting [4]), 6.9 ± 2.05 µM; in series [2] (setting [6]), 3.18 ± 0.32 µM; in series [3] (setting [7]), 4.1 ± 1.37 µM.

Take “N-(4–(1-(2–(4-methyl-5-oxo-4,5-dihydrothiazol-2-yl)hydrazono)ethyl)phenyl)-2-oxo-2H-chromene-6-sulfonamide [Compound 15b]”: the IC50 in series [1] (setting [10]) was determined as 25.1 ± 2.08 µM; in series [2] (72 h incubation, read-out: IC50 MCF7), 10.6 ± 1.35 µM; in series [3] (72 h incubation, SRB, mean ± SE of three experiments, read-out: IC50 Caco-2) it was 175 ± 12.3 µM. Moreover, the “HepG2 Experimental activity (pIC50)” value in series [1] (setting [11]) is given as −1.3992. Besides, in series [3] (setting [11]), the “Caco-2 Experimental activity (pIC50)” value is −2.2428.
